The values that follow are results of earlier work, collected in article PMC4875922 (Drugs in R&D, 2016).

Assay in data set [1]: not given
The source holds these as a separate data set.

Regarding `O=C(Nc1cccnn1)N1CCC(=Cc2cccc(Oc3ccc(C(F)(F)F)cn3)c2)CC1` [PF-04457845], the “effect in phase II study in osteoarthritic pain” value is listed as “without effect”. The linearity of pharmacokinetics result in data set [1] is “non-linear pharmacokinetics”. The tolerability result in data set [1] (at doses that cause maximal inhibition of FAAH and elevation of plasma endocannabinoids) is reported as “well tolerated”.
